# Source: patent publication US5145783A, “Glyphosate-tolerant 5-endolpyruvyl-3-phosphoshikimate synthase” (Monsanto Company, priority 1990, dated 1992)
# “Also recorded” adds a separate entry of the source.
# What was measured:
# [1] = molecular target: T1, glyphosate-tolerant EPSP synthase (gly(101)-ala) of tomato (Solanum lycopersicum, UniProt P10748, G177A); assay: EPSP synthase activity assay, extracts of E. coli SR481 harboring pMON9729; format: biochemical
# T1 construct: ATG translational initiation codon at the site predicted to be the start of the mature enzyme for in vitro expression in E. Coli; initiator methionine (ATG in an engineered NcoI site) (N); made in house; host or cells: E. coli SR481 (aroA mutant) harboring pMON9729, desalted cell extract
# T1 sequence (P10748 77-520 G177A): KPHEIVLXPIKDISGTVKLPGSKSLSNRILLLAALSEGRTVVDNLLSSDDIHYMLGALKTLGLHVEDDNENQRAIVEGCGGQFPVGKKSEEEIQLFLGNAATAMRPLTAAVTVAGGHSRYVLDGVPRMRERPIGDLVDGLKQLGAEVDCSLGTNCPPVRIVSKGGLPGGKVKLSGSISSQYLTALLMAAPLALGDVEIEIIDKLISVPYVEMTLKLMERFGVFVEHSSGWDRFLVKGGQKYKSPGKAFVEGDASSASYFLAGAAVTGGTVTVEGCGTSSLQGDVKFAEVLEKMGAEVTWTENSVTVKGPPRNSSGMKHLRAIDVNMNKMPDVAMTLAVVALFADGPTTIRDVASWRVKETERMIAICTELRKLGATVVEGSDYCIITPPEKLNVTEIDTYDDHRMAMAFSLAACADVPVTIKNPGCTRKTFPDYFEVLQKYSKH
# Description: E. coli SR481 cells harboring pMON9719 or pMON9729 were grown under conditions which induce the expression of the RecA promoter. The cells were lysed and the extracts were assayed for EPSP synthase activity.
# Specifically, the bacterial cell paste was washed twice with 0.9% saline, suspended in buffer (100 mM Tris-HCl, 5 mM dithiothreitol, 1 mM EDTA, 10% glycerol and 1 mM benzamidine HCl) passed twice through the French Pressure Cell at 1000 psi. The cell abstract was separated from the cells by centrifuging at 15,000×gravity for 10 mins. at 5° C. It was desalted using Sephadex G-50 (Pharmacia, Piscataway, N.J.). The desalted extract was assayed for EPSP synthase activity as follows:
# To an assay mix (40 μl) containing shikimate-3-phosphate (2 mM), ^14 C-phosphoenolpyruvate (1 mM, 1.2 mCi/mmol), ammonium molybdate (0.1 mM), potassium fluoride (5 mM), in 50 mM HEPES-KOH, pH 7, was added 10 μl of the extract and incubated at 25° C. for 2 mins. […] The radioactivity of the eluent was monitored using a Radiometric Flo-One Beta Instrument. […] The EPSP synthase activity was determined by measurement of the conversion of ^14 C-PEP to ^14 […], both of which are resolved under the above conditions of chromatography. The protein content of the extract was determined by the method of Bradford (Biorad Labs, Calif.). […]
# [2] = system: tobacco plants transformed with wild-type EPSP synthase gene; assay: Relative effect of glyphosate spray on transformed tobacco, wild-type gene; format: in vivo, Nicotiana tabacam CV H425; parameters: key: 0 = total kill, 10 = normal unsprayed plant; settings: WT
# Description: (§1) A culture of A. tumefaciens cells containing pMON567/pGV3111-SE was contacted with leaf disks taken from tobacco plants (Nicotiana tabacam CV H425) as described by Horsch (1985). The Agrobacterium cells inserted the mutant EPSP synthase gene into the chromosomes of the plant cells. Plant cells resistant to kanamycin were selected and regenerated into differentiated plants by the procedure of Horsch (1985).
# (§2) Progeny of these plants were propagated and grown to a rosette diameter of about 10 cm corresponding to a plant age of about four weeks. The plants were sprayed with glyphosate at levels corresponding to 2.0 and 3.6 pounds acid equiv./acre. […] The effect was translated to a numerical scale of 0-10 in which 0 represents total kill and 10 is the normal, unsprayed plant. […] The values represent the best transformant for both wild-type EPSP synthase and glyphosate-tolerant EPSP synthase genes.
# [3] = system: tobacco plants transformed with glyphosate-tolerant petunia EPSP synthase gene (pMON567); assay: Relative effect of glyphosate spray on transformed tobacco, glyphosate-tolerant gene; format: in vivo, Nicotiana tabacam CV H425; parameters: key: 0 = total kill, 10 = normal unsprayed plant; settings: GT
# Description: as §1
# as §2, with “The plants were sprayed with glyphosate at levels corresponding to 2.0 and 3.6 pounds acid equiv./acre.” left out
# [4] = system: petunia plants transformed with chimeric EPSP synthase gene (pMON546); assay: Plant response to glyphosate spraying, transformed plants; format: in vivo; settings: 0.8 #/acre acid equivalent, isopropylamine salt sprayed
# Description: Four individual representative transgenic seedlings were selected, grown and tested in the testing procedure described below, along with four individual non-transformed (wild-type) petunia seedlings.
# The plants were grown in a growth medium in a growth chamber at 26° C. with 12 hours of light per day. The plants were fertilized weekly with a soluble fertilizer and watered as needed. The plants were sprayed at a uniform and reproducible delivery rate of herbicide by use of an automated track sprayer. The glyphosate solution used was measured as pounds of glyphosate acid equivalents per acre, mixed as the glyphosate isopropylamine salt, with an ionic surfactant.
# Four individual wild-type (non-transformed) petunia plants were selected for use as control plants. Four individual transformed plants containing the pMON546 vector were selected by kanamycin resistance as described in Horsch et al. (1985).
# The control plants and the transformed plants were sprayed with the isopropylamine salt of glyphosate at the application level listed in Table 2 below; the experimental results obtained are also summarized in Table 2.
# wild type callus = assay: Growth of wild type callus on glyphosate; format: cell-based, Brassica napus; settings: 0.5 mM glyphosate
# [5] = 0.4 Pounds/Acre, Day 7, best transformant
# [6] = 0.4 Pounds/Acre, Day 14, best transformant
# [7] = 0.4 Pounds/Acre, Day 28, best transformant
# [8] = 2.0 Pounds/Acre, Day 7, best transformant
# [9] = 2.0 Pounds/Acre, Day 14, best transformant
# [10] = 2.0 Pounds/Acre, Day 28, best transformant
# [11] = 3.6 Pounds/Acre, Day 7, best transformant
# [12] = 3.6 Pounds/Acre, Day 14, best transformant
# [13] = 3.6 Pounds/Acre, Day 28, best transformant
smiles,measurement,setting,value
"O=C(O)CNCP(=O)(O)O [glyphosate, N-phosphonomethylglycine]",IC50,[1],32 mM
same,"Relative effect of glyphosate (0 total kill, 10 no effect)",[2]; [5],6.0
same,"Relative effect of glyphosate (0 total kill, 10 no effect)",[2]; [6],7.0
same,"Relative effect of glyphosate (0 total kill, 10 no effect)",[2]; [7],9.0
same,"Relative effect of glyphosate (0 total kill, 10 no effect)",[2]; [8],5.0
same,"Relative effect of glyphosate (0 total kill, 10 no effect)",[2]; [9],1.8
same,"Relative effect of glyphosate (0 total kill, 10 no effect)",[2]; [10],0.8
same,"Relative effect of glyphosate (0 total kill, 10 no effect)",[2]; [11],5.0
same,"Relative effect of glyphosate (0 total kill, 10 no effect)",[2]; [12],1.7
same,"Relative effect of glyphosate (0 total kill, 10 no effect)",[2]; [13],0.8
same,"Relative effect of glyphosate (0 total kill, 10 no effect)",[3]; [5],8.0
same,"Relative effect of glyphosate (0 total kill, 10 no effect)",[3]; [6],8.0
same,"Relative effect of glyphosate (0 total kill, 10 no effect)",[3]; [7],9.0
same,"Relative effect of glyphosate (0 total kill, 10 no effect)",[3]; [8],8.0
same,"Relative effect of glyphosate (0 total kill, 10 no effect)",[3]; [9],8.3
same,"Relative effect of glyphosate (0 total kill, 10 no effect)",[3]; [10],7.0
same,"Relative effect of glyphosate (0 total kill, 10 no effect)",[3]; [11],5.0
same,"Relative effect of glyphosate (0 total kill, 10 no effect)",[3]; [12],7.4
same,"Relative effect of glyphosate (0 total kill, 10 no effect)",[3]; [13],7.0
same,Visual Appearance,[4],growing well; also recorded: healthy and viable
same,effect on callus,wild type callus,kills
